From article PMC10415494, “Ga(III) pyridinecarboxylate complexes: potential analogues of the second generation of therapeutic Ga(III) complexes?” (Journal of Biological Inorganic Chemistry, 2023) come the findings set out here.

What is called IC50 is the concentration that gives 50% inhibition.

Where two headings read alike, the source gives them in different places.

The subject of series [1] is HepG2 (human liver cancer cell line). Kind of series: MTT cell viability test. The format is cell-based. To be noted: after 48 h. The method, then: Prior to each experiment, cell viability was determined using an automated cell counter (Countess II FL, Thermo Fisher Scientific, USA). 50 μl of the HepG2 cell suspension was transferred into new tube and 12.5 μl of trypan blue was added. After one minute, 10 μl was taken from the prepared suspension to determine the number of viable cells in 1 ml. The automated cell counter determined the total number of viable cells and the percentage of viability. […] Cells (2 × 10^4/200 μl) were incubated in 96-well microtiter plates for 24 and 48 h in the presence of metal complexes, picolinic acid, and gallium(III) nitrate, at 37 °C in humified atmosphere with 5% CO2. The cells were centrifuged for 10 min at 2500 rpm and 20 °C, supernatant was removed and 180 μl of fresh serum-free medium was added. Then 10 μl of MTT solution with a concentration of 5 mg/ml was added and cells were incubated for next 2–3 h in the dark until a precipitate formed. After centrifugation and removal of supernatant 150 μl of DMSO was added to the cells to dissolve the precipitate. Absorbance at 540 nm was measured using a spectrophotometer.

Series [2] deals with Escherichia coli (E. coli) CCM 3988. Kind of series: Antimicrobial activity, macrodilution method (growth by A590). The note with it: for IC50: Bacteria, MHB, 37 °C, DMSO max 1.0 vol. %, read-out: IC50 E. coli. The format is cell-based. On the procedure:
(§1) The antimicrobial activities of gallium(III) complexes GaPic, GaDpic, GaChel, GaCldpic, free ligands (HPic, H2Dpic, H2Chel, H2Cldpic) and positive controls (cefoxitin (C), ampicillin (A) and piperacillin (P)) were evaluated by macrodilution method using G^+ bacteria (Firmicutes) Staphylococcus aureus (S. aureus) CCM 3953 (Czech Collection of Microorganisms), G^− bacteria (γ-proteobacteria) Escherichia coli (E. coli) CCM 3988, Pseudomonas aeruginosa (P. aeruginosa) CCM 1959 (Czech Collection of Microorganisms) and the yeast Candida parapsilosis (C. parapsilosis) ATCC 22019 (American type culture collection). Cultures of bacteria (in Mueller–Hinton broth, MHB) and yeasts (in Sabouraud’s growth medium, SB) were incubated under shaking (250 rpm) at 37 °C. The growth of bacteria and yeasts was evaluated by measuring the absorbance of the growing cultures (A590) until the cultures reached the stationary growth phase. The effects of gallium(III) complexes on the growth of filamentous fungi Rhizopus oryzae (R. oryzae) CCM F-8284, Alternaria alternata (A. alternata) CCM F-128 and Microsporum gypseum (M. gypseum) CCM F-8342 (Czech Collection of Microorganisms) were observed by macrodilution method on solidified potato-dextrose growth medium (PDA). During culturing, the diameters of growing fungal colonies were measured at regular intervals. Briefly, the antimicrobial activity (bacteria and yeasts) gallium(III) complexes/ ligands were added to the microbial culture at the beginning of the cultivation-to the lag phase. Pure gallium(III) complexes/ligands were dissolved in DMSO. The final concentration of DMSO never exceeded 1.0 vol. % neither in control nor treated samples. Concentration of gallium(III) complexes used in experimental work for evaluation of antimicrobial activity was used in the range of 0.05–2 mM, for the free ligands in the range of 0.5–2.0 mM in all experiments. […] The IC50 values were evaluated from toxicity curves. All the obtained results of antimicrobial activity were compared to the activity of Ga(NO3)3.

Series [3] has as its system Staphylococcus aureus (S. aureus) CCM 3953. The description is as above. The format is cell-based. The note with it: for IC50: Bacteria, MHB, 37 °C, DMSO max 1.0 vol. %, read-out: IC50 S. aureus. The method, then: as §1
The test system of series [4] is Candida parapsilosis (C. parapsilosis) ATCC 22019. Kind of series: Antimicrobial activity, macrodilution method (yeast, growth by A590). The format is cell-based. To be noted: Yeast, Sabouraud's growth medium, 37 °C, read-out: IC50 C. parapsilosis. On the procedure: as §1
The test system of series [5] is Alternaria alternata (A. alternata) CCM F-128. Kind of series: Growth of filamentous fungi, macrodilution method on solidified PDA (colony diameter). The format is cell-based. To be noted: Filamentous fungi, solidified potato-dextrose growth medium, read-out: IC50 A. alternata. The method, then: as §1
The test system of series [6] is Microsporum gypseum (M. gypseum) CCM F-8342. Described as above. It is filed as cell-based. To be noted: Filamentous fungi, solidified potato-dextrose growth medium, read-out: IC50 M. gypseum. The method, then:
as §1

Series [7] concerns Rhizopus oryzae (R. oryzae) CCM F-8284. Described as above. The format is cell-based. The note with it: solidified potato-dextrose growth medium, read-out: IC50 R. oryzae. On the procedure:
as §1

Series [8] has as its system A2058 (human metastatic melanoma). Kind of series: MTS antiproliferative assay. The method, then:
(§2) Cell culture the cell lines A2058 (human metastatic melanoma), BLM (human metastatic melanoma), HCT116 (human colorectal carcinoma), HeLa (human cervical adenocarcinoma), Jurkat (human leukaemic T cell lymphoma). […] Cells were maintained in standard conditions with an atmosphere containing 5% CO2 at 37 °C.
(§3) The antiproliferative activity of Ga(III) complexes GaPic, GaDpic, GaChel, GaCldpic, free ligands (HPic, H2Dpic, H2Chel, H2Cldpic) and cisplatin (cisPt) were evaluated by colorimetric microculture MTS (3-(4,5-dimethylthiazol-2-yl)-5-(3-carboxymethoxyphenyl)-2-(4-sulfophenyl)-2H tetrazolium) assay (Promega, Madison, WI, USA). Cancer and non-cancer cells were seeded at density 5 × 10^3 cells/well in 96-well polystyrene microplates. Twenty-four hours after cell seeding, different concentrations (1.0—100.0 µM) of the compounds were tested. After 72 h of incubation, 10 µL of MTS was added to each well. After an additional 2 h, cell proliferation was evaluated by measuring of absorbance at wavelength 490 nm using the automated Cytation™ 3 Cell Imaging Multi-Mode Reader (Biotek, Winooski, VT, USA). The absorbance of control wells was taken as 100%, and the results were expressed as a percent of untreated control. IC50 values were calculated from MTS analyses.

Series [9] relates to HCT116 (human colorectal carcinoma). Kind of series: MTS antiproliferative assay. On the procedure:
as §2, §3
(Tetrazolium dyes change colour on reduction, which living cells bring about.)

The subject of series [10] is HeLa (human cervical adenocarcinoma). Kind of series: MTS antiproliferative assay. On the procedure:
as §2, §3

The subject of series [11] is Jurkat (human leukaemic T cell lymphoma). Kind of series: MTS antiproliferative assay. On the procedure:
as §2, §3

In series [12] the test system is MDA-MB-231 (human mammary gland adenocarcinoma). Kind of series: MTS antiproliferative assay. On the procedure:
as §2, §3

For series [13], the system named is PaTu 8902 (human pancreatic adenocarcinoma). Kind of series: MTS antiproliferative assay. The method, then: as §2, §3
The test system of series [14] is human dermal fibroblasts (HDF). Kind of series: in vitro. The method, then: as §2, §3
Series [15] addresses T1, bovine serum albumin (BSA) (Bos taurus, UniProt P02769).
T1 construct: purchased Sigma-Aldrich Chemicals
Kind of series: BSA fluorescence quenching (Stern-Volmer). The format is binding. The note with it: 0.01 M PBS buffer pH 7.4, 25 °C, λex = 280 nm. On the procedure: Fluorescence measurements were carried out on a Varian Cary Eclipse spectrofluorometer. The quenching studies of BSA with the Ga(III) complexes were investigated to determine whether they were able to quench fluorescence of BSA. All measurements were performed at 25 °C in 0.01 M PBS buffer (pH 7.4). The fluorescence spectra were measured at an excitation wavelength of 280 nm, with a slit width of 10 nm for the excitation and emission beams, in the range of 300–450 nm and analysed according to the classical Stern–Volmer Equation: F0/F=1+KSVQ where F0 and F are the fluorescence intensities in the absence and the presence of the quencher, respectively, KSV is the Stern–Volmer constant, and [Q] is the concentration of quencher.

Series [16] in a line: Complex stability in biological testing medium by time-dependent 1H NMR. The note with it: 300 K, over 96 h. It is filed as physicochemical. The method, then: Nuclear magnetic resonance (NMR) data were collected on a Varian VNMRS 600 spectrometer operating at 599.87 MHz for ^1H. The concentration of all samples was approximately 3 mg/0.6 mL of 1% DMSO-d6/D2O. For comparison, the spectra of pure acids were also measured, while the pH of the solution of acids was adjusted to the same value as the solution of the complexes. The chemical shifts were referenced to the TSP (3-(trimethylsilyl)propionic-2,2,3,3-d4 acid sodium salt) peak (^1H NMR 0.00 ppm). The NMR data were recorded at 300 K, with chemical shifts δ reported in parts per million and coupling constants J in Hertz. All data were analysed using MestReNova 12.0.0 (2017) software. The stability in 1% DMSO-d6/D2O was determined for all samples. […]

Series [17] deals with Pseudomonas aeruginosa (P. aeruginosa) CCM 1959. Kind of series: Antimicrobial activity, macrodilution method (growth by A590). The format is cell-based. To be noted: Pseudomonas aeruginosa, CCM1959; Bacteria; MHB, 37 °C; DMSO max 1.0 vol. %; read-out: IC50 P. aeruginosa. The method, then:
as §1

The test system of another series is any model microorganism. Kind of series: Antimicrobial activity, macrodilution method, all model microorganisms together. The format is cell-based. To be noted: free ligands, range 0.5–2.0 mM. On the procedure: as §1, with “Cultures” for “The antimicrobial activities of gallium(III) complexes GaPic, GaDpic, GaChel, GaCldpic, free ligands (HPic, H2Dpic, H2Chel, H2Cldpic) and positive controls (cefoxitin (C), ampicillin (A) and piperacillin (P)) were evaluated by macrodilution method using G^+ bacteria (Firmicutes) Staphylococcus aureus (S. aureus) CCM 3953 (Czech Collection of Microorganisms), G^− bacteria (γ-proteobacteria) Escherichia coli (E. coli) CCM 3988, Pseudomonas aeruginosa (P. aeruginosa) CCM 1959 (Czech Collection of Microorganisms) and the yeast Candida parapsilosis (C. parapsilosis) ATCC 22019 (American type culture collection). Cultures”

A further series is described as follows: in vitro. To be noted: human. On the procedure: as §2, §3
Where [18] appears, read: Lodderomyces parapsilosis, ATCC22019.
Where [19] appears, read: Homo sapiens, A2058, 72 h, read-out: Cytotoxic activity IC50 A2058.
Where [20] appears, read: Homo sapiens, HCT-116, 72 h, read-out: Cytotoxic activity IC50 HCT116.
[21] abbreviates: Homo sapiens, HeLa, 72 h, read-out: Cytotoxic activity IC50 HeLa.
Where [22] appears, read: Homo sapiens, Jurkat, 72 h, read-out: Cytotoxic activity IC50 Jurkat.
Where [23] appears, read: Homo sapiens, MDA-MB-231, 72 h, read-out: Cytotoxic activity IC50 MDA-MB-231.
The mark [24] stands for this setting: Homo sapiens, PaTu 8902, 72 h, read-out: Cytotoxic activity IC50 PaTu 8902.

T1 sequence (P02769 25-607): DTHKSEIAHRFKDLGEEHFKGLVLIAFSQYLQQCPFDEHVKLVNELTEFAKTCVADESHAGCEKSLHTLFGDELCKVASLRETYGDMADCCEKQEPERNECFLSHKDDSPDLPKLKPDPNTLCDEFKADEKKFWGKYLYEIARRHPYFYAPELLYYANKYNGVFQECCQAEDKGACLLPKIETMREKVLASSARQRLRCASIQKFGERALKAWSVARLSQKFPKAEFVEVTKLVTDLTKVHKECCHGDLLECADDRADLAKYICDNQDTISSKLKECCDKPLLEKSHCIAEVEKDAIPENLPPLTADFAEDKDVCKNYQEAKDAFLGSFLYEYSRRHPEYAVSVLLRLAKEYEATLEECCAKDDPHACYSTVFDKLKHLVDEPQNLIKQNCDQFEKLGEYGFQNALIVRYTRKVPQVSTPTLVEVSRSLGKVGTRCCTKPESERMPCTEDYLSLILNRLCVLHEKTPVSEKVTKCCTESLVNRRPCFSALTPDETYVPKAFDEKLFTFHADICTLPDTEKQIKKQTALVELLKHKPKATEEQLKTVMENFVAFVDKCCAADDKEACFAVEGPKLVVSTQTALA

Turning to `O=C([O-])c1ccccn1.[Ag+]` [AgPic], the entries for the “decrease in cell viability of HepG2” value in series [1] (75 μM) and in [1] (100 μM) were 45% and 40%, respectively.
With `O.O=C([O-])c1cccc(C(=O)[O-])n1.O=C([O-])c1cccc(C(=O)[O-])n1.[Ga+3].[OH3+]` [GaDpic, H3O[Ga(Dpic)2]·H2O], the IC50 in series [2], in [3], in [4], in [5], in series [6] and in series [7] was over 2000 µM each time. Besides, the IC50 in series [8] came out at 287 ± 59.3 µM; in series [9], 1240 ± 58.9 µM; in series [10], 1140 ± 135 µM; in [11], 325 ± 34.9 µM; in [12] it was 308 ± 67.8 µM; in series [13], 509 ± 32.6 µM. In [14], this compound showed an IC50 of 288 ± 26.6 µM. Further, the “partial inhibition of E. coli growth” value in series [2] (concentration not given) is recorded as 30%. Further, the “inhibition of S. aureus growth” value in [3] (complex at 2 mM) was determined as 24%. In [15], the “Stern–Volmer binding constant Ksv BSA” value is 68500 M⁻¹. For the same compound, in [16], the “stability in 1% DMSO-d6/D2O solution” value is recorded as “stable”.
`O=C(O)c1cc(O)cc(C(=O)O)n1` [H2Chel, chelidamic acid]: the half-inhibitory concentration (IC50) in series [2] (Escherichia coli, CCM3988) is over 500 µM; in [17] it was over 500 µM; in series [3] (Staphylococcus aureus, CCM3953), over 500 µM; in series [4] (setting [18]), over 500 µM; in [5] (Alternaria alternata), over 500 µM; in [6] (Nannizzia gypsea) it was over 500 µM. For the same compound, the IC50 in series [7] (Rhizopus arrhizus) was over 500 µM; in [8] (setting [19]), over 200 µM; in [9] (setting [20]) it was over 200 µM; in series [10] (setting [21]) it was over 200 µM; in series [11] (setting [22]) it was over 200 µM; in series [12] (setting [23]), over 200 µM. Further, in series [13] (setting [24]), the half-maximal inhibitory concentration (IC50) is over 200 µM. In addition, the “effect on the growth of any model microorganism” value in the series with any model microorganism was “did not affect the growth”. This compound also yielded an IC50 at 72 h in “in vitro” of over 200 µM.
In the case of `O=C(O)c1cc(Cl)cc(C(=O)O)n1` [H2Cldpic, 4-chlorodipicolinic acid], the IC50 in series [2] (Escherichia coli, CCM3988) was over 500 µM; in series [17] it was over 500 µM; in series [3] (Staphylococcus aureus, CCM3953) it was over 500 µM; in series [4] (setting [18]) it was over 500 µM; in [5] (Alternaria alternata), over 500 µM; in [6] (Nannizzia gypsea), over 500 µM. The IC50 in [7] (Rhizopus arrhizus) was over 500 µM; in [8] (setting [19]), over 200 µM; in series [9] (setting [20]), over 200 µM; in [10] (setting [21]), over 200 µM; in [11] (setting [22]), over 200 µM; in [12] (setting [23]), over 200 µM. Besides, the IC50 in series [13] (setting [24]) was over 200 µM. Also, the “effect on the growth of any model microorganism” value with any model microorganism is on record as “did not affect the growth”. In “in vitro” (human dermal fibroblasts (HDF)), this compound gave an IC50 at 72 h of over 200 µM.
